From patent US9856216B2, “Compounds as TNIK, IKKε and TBK1 inhibitors and pharmaceutical composition comprising same” (GREEN CROSS CORPORATION, priority 2015, dated 2018)

target: T1, TNIK (Homo sapiens, UniProt Q9UKE5); assay: ADP-Glo Kinase Assay, inhibition activity on TNIK; format: biochemical; conditions: not given
T1 construct: purchased Promega V4158
Procedure: The inhibition activities on TNIK, IKKε and TBK1 were measured by a luminometer, TNIK/IKKε/TBK1 Kinase Enzyme System (Promega, Ca# V4158; Invitrogen, PR8031B, Promega, Ca# V3991) and ADP-Glo Kinase Assay using ADP-Glo™ Kinase Analysis Kit (Promega, Ca# V9101) and a kinase reaction buffer [40 mM Tris(pH 7.5), 20 mM MgCl2, 0.1 mg/mL BSA] in accordance with the manufacturer's protocol.

T1 sequence (Q9UKE5 1-367 limits assumed): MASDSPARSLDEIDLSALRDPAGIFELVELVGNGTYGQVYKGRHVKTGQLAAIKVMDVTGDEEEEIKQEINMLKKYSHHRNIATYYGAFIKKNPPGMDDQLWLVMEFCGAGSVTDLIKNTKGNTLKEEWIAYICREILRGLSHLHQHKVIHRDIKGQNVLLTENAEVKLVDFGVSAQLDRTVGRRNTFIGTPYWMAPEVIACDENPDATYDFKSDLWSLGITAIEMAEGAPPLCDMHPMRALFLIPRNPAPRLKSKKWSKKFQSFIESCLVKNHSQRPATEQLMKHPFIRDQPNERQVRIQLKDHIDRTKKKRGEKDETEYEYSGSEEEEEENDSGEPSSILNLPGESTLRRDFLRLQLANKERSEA

SMILES	TNIK (μM)
O=C(Nc1ccc(-c2cccc(O)c2O)c2c1C(=O)NC2)c1ccc(F)cc1 [Example 189, N-(7-(2,3-dihydroxyphenyl)-3-oxoisoindolin-4-yl)-4-fluorobenzamide]	Insoluble
Cc1nc2cccc(-c3ccc(NC(=O)c4ccc(F)cc4)c4c3CNC4=O)c2o1 [Example 194, 4-Fluoro-N-(7-(2-methylbenzo[d]oxazol-7-yl)-3-oxoisoindolin-4-yl)benzamide]	Insoluble
O=C(Nc1ccc(-c2ccc(F)nc2)c2c1C(=O)NC2)c1ccccc1 [Example 199, N-(7-(6-fluoropyridin-3-yl)-3-oxoisoindolin-4-yl)benzamide]	Insoluble
COc1ccc(-c2ccc(NC(=O)c3ccccc3)c3c2CNC3=O)cn1 [Example 200, N-(7-(6-methoxypyridin-3-yl)-3-oxoisoindolin-4-yl)benzamide]	Insoluble

same assay, conditions: read-out: TNIK

SMILES	IC50
CN(C)c1cccc(-c2ccc(NC(=O)c3ccccc3)c3c2CNC3=O)c1 [Example 148, N-(7-(3-(dimethylamino)phenyl)-3-oxoisoindolin-4-yl) benzamide]	7.4 µM
O=C(Nc1ccc(-c2ccccc2F)c2c1C(=O)NC2)c1ccccc1 [Example 149, N-(7-(2-fluorophenyl)-3-oxoisoindolin-4-yl)benzamide]	3.8 µM
O=C(Nc1ccc(-c2ccoc2)c2c1C(=O)NC2)c1ccccc1 [Example 150, N-(7-(furan-3-yl)-3-oxoisoindolin-4-yl)benzamide]	2.7 µM
O=C(Nc1ccc(-c2cccc(F)c2)c2c1C(=O)NC2)c1ccccc1 [Example 151, N-(7-(3-fluorophenyl)-3-oxoisoindolin-4-yl)benzamide]	1.5 µM
O=C(Nc1ccc(-c2cccnc2)c2c1C(=O)NC2)c1ccccc1 [Example 152, N-(3-oxo-7-(pyridin-3-yl)isoindolin-4-yl)benzamide]	> 20 µM
O=C(Nc1ccc(-c2cncnc2)c2c1C(=O)NC2)c1ccccc1 [Example 154, N-(3-oxo-7-(pyrimidin-5-yl)isoindolin-4-yl)benzamide]	> 20 µM
O=C(Nc1ccc(-c2ccccc2)c2c1C(=O)NC2)c1sccc1Cl [Example 155, 3-Chloro-N-(3-oxo-7-phenylisoindolin-4-yl)thiophene-2-carboxamide]	2.29 µM
O=C(Nc1ccc(-c2ccccc2)c2c1C(=O)NC2)c1ccc(Br)s1 [Example 156, 5-Bromo-N-(3-oxo-7-phenylisoindolin-4-yl)thiophene-2-carboxamide]	2.86 µM
O=C(Nc1ccc(-c2ccccc2)c2c1C(=O)NC2)c1sccc1Br [Example 157, 3-Bromo-N-(3-oxo-7-phenylisoindolin-4-yl)thiophene-2-carboxamide]	3.4 µM
O=C(Nc1ccc(-c2ccco2)c2c1C(=O)NC2)c1ccc(F)cc1 [Example 158, 4-Fluoro-N-(7-(furan-2-yl)-3-oxoisoindolin-4-yl)benzamide]	1.27 µM
CCCCC(=O)Nc1ccc(-c2ccccc2)c2c1C(=O)NC2 [Example 159, N-(3-oxo-7-phenylisoindolin-4-yl)pentanamide]	1.8 µM
CC(=O)Nc1ccc(-c2ccccc2)c2c1C(=O)NC2 [Example 160, N-(3-oxo-7-phenylisoindolin-4-yl)acetamide]	1.1 µM
CS(=O)(=O)c1ccc(-c2ccc(NC(=O)c3ccccc3)c3c2CNC3=O)cc1 [Example 167, N-(7-(4-(methylsulfonyl)phenyl)-3-oxoisoindolin-4-yl) benzamide]	9.8 µM
CS(=O)(=O)c1cccc(-c2ccc(NC(=O)c3ccccc3)c3c2CNC3=O)c1 [Example 168, N-(7-(3-(methylsulfonyl)phenyl)-3-oxoisoindolin-4-yl) benzamide]	> 20 µM
CC(=O)Nc1cccc(-c2ccc(NC(=O)c3ccccc3)c3c2CNC3=O)c1 [Example 169, N-(7-(3-acetamidophenyl)-3-oxoisoindolin-4-yl)benzamide]	4.2 µM
O=C(Nc1ccc(-c2ccccc2)c2c1C(=O)NC2)c1ccc(Cl)s1 [Example 170, 5-Chloro-N-(3-oxo-7-phenylisoindolin-4-yl)thiophene-2-carboxamide]	3.52 µM
COc1cccc(-c2ccc(NC(=O)c3ccccc3)c3c2CNC3=O)c1OC [Example 171, N-(7-(2,3-dimethoxyphenyl)-3-oxoisoindolin-4-yl)benzamide]	0.057 µM
COc1cc(OC)cc(-c2ccc(NC(=O)c3ccccc3)c3c2CNC3=O)c1 [Example 172, N-(7-(3,5-dimethoxyphenyl)-3-oxoisoindolin-4-yl)benzamide]	> 20 µM
O=C(Nc1ccc(C2CC2)c2c1C(=O)NC2)c1ccccc1 [Example 173, N-(7-cyclopropyl-3-oxoisoindolin-4-yl)benzamide]	0.75 µM
O=C(Nc1ccc(-c2ccccc2Cl)c2c1C(=O)NC2)c1ccccc1 [Example 174, N-(7-(2-chlorophenyl)-3-oxoisoindolin-4-yl)benzamide]	> 20 µM
COc1ccc(-c2ccc(NC(=O)c3ccccc3)c3c2CNC3=O)c(OC)c1 [Example 175, N-(7-(2,4-dimethoxyphenyl)-3-oxoisoindolin-4-yl)benzamide]	3 µM
COc1ccc(-c2ccc(NC(=O)c3ccccc3)c3c2CNC3=O)cc1OC [Example 176, N-(7-(3,4-dimethoxyphenyl)-3-oxoisoindolin-4-yl)benzamide]	> 20 µM

SMILES	IC50
CCOc1cccc(-c2ccc(NC(=O)c3ccccc3)c3c2CNC3=O)c1 [Example 177, N-(7-(3-ethoxyphenyl)-3-oxoisoindolin-4-yl)benzamide]	8.1 µM
COc1ccc(OC)c(-c2ccc(NC(=O)c3ccccc3)c3c2CNC3=O)c1 [Example 178, N-(7-(2,5-dimethoxyphenyl)-3-oxoisoindolin-4-yl)benzamide]	> 20 µM
O=C(Nc1ccc(-c2ccc(Cl)cc2)c2c1C(=O)NC2)c1ccccc1 [Example 179, N-(7-(4-chlorophenyl)-3-oxoisoindolin-4-yl)benzamide]	> 20 µM
O=C(Nc1ccc(-c2cccc(Cl)c2)c2c1C(=O)NC2)c1ccccc1 [Example 180, N-(7-(3-chlorophenyl)-3-oxoisoindolin-4-yl)benzamide]	13.7 µM
CCOc1ccc(-c2ccc(NC(=O)c3ccccc3)c3c2CNC3=O)cc1 [Example 181, N-(7-(4-ethoxyphenyl)-3-oxoisoindolin-4-yl)benzamide]	> 20 µM
CCOc1ccccc1-c1ccc(NC(=O)c2ccccc2)c2c1CNC2=O [Example 182, N-(7-(2-ethoxyphenyl)-3-oxoisoindolin-4-yl)benzamide]	2.8 µM
N#Cc1ccccc1-c1ccc(NC(=O)c2ccccc2)c2c1CNC2=O [Example 183, N-(7-(2-cyanophenyl)-3-oxoisoindolin-4-yl)benzamide]	1.7 µM
CCCCOc1ccc(-c2ccc(NC(=O)c3ccccc3)c3c2CNC3=O)cc1 [Example 184, N-(7-(4-butoxyphenyl)-3-oxoisoindolin-4-yl)benzamide]	> 20 µM
CN(C)c1ccccc1-c1ccc(NC(=O)c2ccccc2)c2c1CNC2=O [Example 185, N-(7-(2-(dimethylamino)phenyl)-3-oxoisoindolin-4-yl) benzamide]	2.8 µM
O=C(Nc1ccc(-c2ccc(OC(F)(F)F)cc2)c2c1C(=O)NC2)c1ccccc1 [Example 186, N-(3-oxo-7-(4-(trifluoromethoxy)phenyl)isoindolin-4-yl) benzamide]	> 20 µM
COc1cccc(OC)c1-c1ccc(NC(=O)c2ccccc2)c2c1CNC2=O [Example 187, N-(7-(2,6-dimethoxyphenyl)-3-oxoisoindolin-4-yl)benzamide]	2.2 µM
CCCc1ccc(-c2ccc(NC(=O)c3ccccc3)c3c2CNC3=O)cc1 [Example 188, N-(3-oxo-7-(4-propylphenyl)isoindolin-4-yl)benzamide]	> 20 µM
COc1cccc(-c2ccc(NC(=O)c3ccc(F)cc3)c3c2CNC3=O)c1O [Example 190, 4-Fluoro-N-(7-(2-hydroxy-3-methoxyphenyl)-3-oxoisoindolin-4-yl)benzamide]	0.52 µM
O=C(Nc1ccc(-c2cccs2)c2c1C(=O)NC2)c1ccc(F)cc1 [Example 191, 4-Fluoro-N-(3-oxo-7-(thiophen-2-yl)isoindolin-4-yl)benzamide]	13.3 µM
Cc1ccc(C(=O)Nc2ccc(-c3ccccc3)c3c2C(=O)NC3)o1 [Example 192, 5-Methyl-N-(3-oxo-7-phenylisoindolin-4-yl)furan-2-carboxamide]	0.73 µM
O=C(Nc1ccc(-c2cccc3ncoc23)c2c1C(=O)NC2)c1ccc(F)cc1 [Example 193, N-(7-(benzo[d]oxazol-7-yl)-3-oxoisoindolin-4-yl)-4-fluorobenzamide]	1.45 µM
O=C(Nc1ccc(-c2ccc(CN3CCCC3)s2)c2c1C(=O)NC2)c1ccccc1 [Example 195, N-(3-oxo-7-(5-(pyrrolidin-1-ylmethyl)thiophen-2-yl)isoindolin-4-yl)benzamide]	> 20 µM
O=C(Nc1ccc(-c2ccc(CN3CCCCC3)s2)c2c1C(=O)NC2)c1ccccc1 [Example 196, N-(3-oxo-7-(5-(piperidin-1-ylmethyl)thiophen-2-yl)isoindolin-4-yl)benzamide]	17.7 µM
O=C(Nc1ccc(-c2ccc(CN3CCOCC3)s2)c2c1C(=O)NC2)c1ccccc1 [Example 197, N-(7-(5-(morpholinomethyl)thiophen-2-yl)-3-oxoisoindolin-4-yl)benzamide]	> 20 µM
CC(C)(C)OC(=O)N1CCN(Cc2ccc(-c3ccc(NC(=O)c4ccccc4)c4c3CNC4=O)s2)CC1 [Example 198, tert-Butyl 4-((5-(7-benzamido-1-oxoisoindolin-4-yl)thiophen-2-yl)methyl)piperazine-1-carboxylate]	> 20 µM
O=C(Nc1ccc(-c2ccccc2)c2c1C(=O)NC2)c1ccccc1Cl [Example 201, 2-Chloro-N-(3-oxo-7-phenylisoindolin-4-yl)benzamide]	15.2 µM
COc1cccc(C(=O)Nc2ccc(-c3ccccc3)c3c2C(=O)NC3)c1 [Example 202, 3-Methoxy-N-(3-oxo-7-phenylisoindolin-4-yl)benzamide]	> 20 µM
